pIC50: −log10 of the molar value.
Assays:
[1] = molecular target: BRD4-BD1-BD2 (Homo sapiens (Human), UniProt O60885); test: AlphaScreening assay, recombinant BRD4-BD1-BD2 and BET Ligand; type: binding; conditions: 2.5 nM BRD4-BD1-BD2, BET Ligand
Method: Assays were performed by AlphaScreening technology using a recombinant BRD4-BD1-BD2 and BET Ligand. The AlphaScreening signal from the assay was correlated with the amount of BET Ligand binding to the bromodomain. The compounds were diluted in 50% DMSO and 1 μl of the dilution was added to a 10 μl reaction so that the final concentration of DMSO is 5% in all of reactions. All reactions were conducted at room temperature. The 9 μl reaction mixture in BRD Assay Buffer contains 2.5 nM BRD4-BD1-BD2 and the indicated amount of the inhibitor, and the reaction mixture were incubated for 30 min followed by additional 30 min incubation after the addition of 1 μl of BET Ligand (Table 2.3.1). For the negative control (blank), 1 μl of the assay buffer was added instead of the BET Ligand. After the 30 min incubation with the BET Ligand, 20 μl of BRD Detection buffer containing 10 μg/ml Glutathione acceptor beads and 10 μg/ml Streptavidin Donor beads was added and the final 30 μl mixture was incubated for 50 min in a dark room.
AlphaScreening signal was measured using EnSpire Alpha 2390 Multilabel reader (Perkin Elmer). Binding experiments were performed in duplicate at each concentration. The AlphaScreening data were analyzed using the computer software, Graphpad Prism. In the absence of the compound, the AlphaScreening signal (At) in each data set was defined as 100% activity. In the absence of the BET Ligand, the AlphaScreening signal (Ab) in each data set was defined as 0% activity. The percent activity in the presence of each compound was calculated according to the following equation: % activity=[(A−Ab)/(At−Ab)]×100, where A=the AlphaScreening signal in the presence of the compound, Ab=the AlphaScreening signal in the absence of the BET Ligand, and At=the AlphaScreening signal in the absence of the compound. The percent inhibition was calculated for certain compounds according to the following equation: % inhibition=100−% activity.

[2] = system: MV4-11 acute myeloid leukemia cells; test: In vitro cell viability (AlamarBlue), MV4-11; type: cell-based; conditions: Homo sapiens, MV4-11 cells, 72-hour incubation, read-out: In Vitro Cell Viability (IC50) MV4-11 Cells (AML)
Method: MV4-11 acute myeloid leukemia cells (American Type Culture Collection, Manassas, Va.) were added to 96-well clear bottom assay plates containing RPMI-1640 medium supplemented with 10% fetal bovine serum (FBS) at approximately 30,000 cells/well and incubated for 24 hours at 37° C. with 5% CO2 and 95% humidity. Control wells containing no cells were included to measure background fluorescence signal. Test compounds were dissolved at […] and diluted two-fold in DMSO to produce a working stock of compound solutions. Aliquots of the working stock solutions were subsequently diluted 100-fold in basal RPMI-1640 medium which was then further diluted 10-fold to the assay plate containing the cells to provide 10 test concentrations ranging from 0.04 μM-20 μM. Following a 72-hour incubation period, viability of the cells was determined by the AlamarBlue® assay (Life Technologies, Carlsbad, Calif.) following the manufacturer's protocol. Prior to generation of dose response curves, the data were background subtracted using the no cell control values (mean+/−standard deviation) and fluorescence values versus Log10 concentration of test compounds were plotted using GraphPad Prism. The resulting sigmoidal curve was then fit to the graph and IC50 values were calculated using a 4 parameter (4PL) algorithm using the following equation: 4(PL)F(x)=(A−D)/(1+(x/c)^B+D, where A=lower asymptote (baseline response), D=upper asymptote (maximum response), C=drug concentration that provokes a response halfway between A and D, B=slope of the curve. The results for selected compounds are set forth in Table 7.

[3] = molecular target: human BRD4 protein (Homo sapiens (Human), UniProt O60885); test: AlphaScreen assay, BRD4 (bromodomain 1 and 2) with histone H4 peptide; type: binding; conditions: for pIC50: 25 nM BRD4, histone H4 peptide, 8 concentrations (10 nM-10 μM), read-out: BRD4-BD1-BD2 IC50; for BRD4-BD1-BD2 % Inhibition: test compounds assayed at 10 μM or 31.6 μM for screening
Method: The interactions between test compounds and BRD4 protein containing both bromodomain 1 and bromodomain 2 were measured with human BRD4 protein with N-terminal His tag (BPS Bioscience, San Diego, Calif.) using AlphaScreen® assay at room temperature. A 9 μl reaction mixture in BRD Assay Buffer (BPS Bioscience) containing 25 nM BRD4 and test compounds at various concentrations were incubated for 30 minutes followed by additional 30-minute incubation with 1 μl of 20 μM histone H4 peptide (residue 1-21) in the presence of 5% DMSO. Test compounds (see Table 4) were assayed at 10 μM or 31.6 μM for screening purpose, while 8 different concentrations (10 nM-10 μM) were used for IC50 measurements. After the incubation, 20 μl of BRD Detection Buffer (BPS Bioscience) containing 10 μg/ml Glutathione Acceptor beads and 10 μg/ml Streptavidin Donor beads (PerkinElmer, Waltham, Mass.) was added and the mixture was incubated for 50 minutes in darkroom. Binding measurements were taken in duplicate at each concentration using EnSpire® Alpha Multimode Plate Reader Model 2390 (PerkinElmer). The AlphaScreen data were analyzed using Graphpad Prism (La Jolla, Calif.). In the absence of the compound, the AlphaScreen signal (At) in each data set was defined as 100% activity. In the absence of the histone H4 peptide ligand, the AlphaScreen signal (Ab) in each data set was defined as 0% activity. The percent activity in the presence of each compound was calculated according to the following equation: % activity=[(A−Ab)/(At−Ab)]×100, where A=the AlphaScreen signal in the presence of compound; Ab=the AlphaScreen signal in the absence of the histone peptide ligand; and At=the AlphaScreen signal in the absence of the compound. The percent inhibition was calculated according to the following equation: % inhibition=100−% activity.

SMILES | pIC50 [3] | BRD4-BD1-BD2 % Inhibition [3] | also measured
C/C(=C\C(=O)c1c(-c2ccccc2)c2cc(Cl)ccc2[nH]c1=O)c1c(F)cccc1Cl | – | – | inhibition at 10 µM [1]: 50%
Cc1noc(C)c1-c1ccc2[nH]c(=O)cc(O)c2c1 | – | – | inhibition at 10 µM [1]: 51%
CCN(CC)C(=O)Sc1c(-c2ccccc2)c2cc(OC)c(-c3c(C)noc3C)cc2[nH]c1=O | – | – | inhibition at 10 µM [1]: 65%
Cc1noc(C)c1-c1ccc2c(c1)c(-c1ccccc1)cc(=O)n2Cc1ccccc1 | – | – | inhibition at 10 µM [1]: 74%
Cc1noc(C)c1-c1ccc2[nH]c(=O)cc(-c3ccccc3)c2c1 | – | – | inhibition at 10 µM [1]: 82%
Cc1noc(C)c1-c1ccc2c(-c3ccccc3)cc(=O)[nH]c2c1 | – | – | inhibition at 10 µM [1]: 85%
Cc1noc(C)c1-c1ccc2[nH]c(=O)cc(NCc3ccccc3)c2c1 | – | – | inhibition at 10 µM [1]: 99%
O=C(/C=C/c1ccccc1)c1c(-c2ccccc2)c2cc(Cl)ccc2[nH]c1=O [Compound 1] | 5.61 | 87% | pIC50 [2]: 6.96
O=C(/C=C/c1cccs1)c1c(-c2ccccc2)c2cc(Cl)ccc2[nH]c1=O [Compound 7, 6-chloro-4-phenyl-3-(3-(thiophen-2-yl)acryloyl)quinolin-2(1H)-one] | – | – | pIC50 [2]: 5.64
CN(C)c1ccc(/C=C/C(=O)c2c(-c3ccccc3)c3cc(Cl)ccc3[nH]c2=O)cc1 [Compound 8, 6-chloro-3-(3-(4-(dimethylamino)phenyl)acryloyl)-4-phenylquinolin-2(1H)-one] | – | – | pIC50 [2]: 4.99
O=C(/C=C/c1ccc2c(c1)OCCO2)c1c(-c2ccccc2)c2cc(Br)ccc2[nH]c1=O [Compound 9, 6-bromo-3-(3-(2,3-dihydrobenzo[b][1,4]dioxin-6-yl)acryloyl)-4-phenylquinolin-2(1H)-one] | – | – | pIC50 [2]: 5.26
O=C(/C=C/c1c(F)cccc1Cl)c1c(-c2ccncc2)c2cc(Cl)ccc2[nH]c1=O [Compound 15, 6-chloro-3-(3-(2-chloro-6-fluorophenyl)acryloyl)-4-(pyridin-4-yl)quinolin-2(1H)-one] | – | – | pIC50 [2]: 5.93
Cc1cncc(F)c1/C=C/C(=O)c1c(-c2cccnc2)c2cc(Cl)ccc2[nH]c1=O [Compound 16, 6-chloro-3-(3-(3-fluoro-5-methylpyridin-4-yl)acryloyl)-4-(pyridin-3-yl)quinolin-2(1H)-one] | – | – | pIC50 [2]: 6.40
Cc1nc(-c2c(N3CCCCC3)c3cc(Cl)ccc3[nH]c2=O)co1 [Compound 21] | – | – | pIC50 [2]: 5.07
Cc1nc(-c2c(N3CCCC3)c3cc(Cl)ccc3[nH]c2=O)co1 [Compound 22] | – | – | pIC50 [2]: 5.74
O=C(/C=C/c1ccccc1)c1c(-c2ccccc2)c2cc(Br)ccc2[nH]c1=O [Compound 81] | – | – | pIC50 [2]: 5.52
COc1ccc(Cn2c(=O)c(-c3coc(C)n3)c(OS(=O)(=O)c3ccc(C)cc3)c3cc(Cl)ccc32)cc1 [Compound 83] | 6.35 | 99% | –
COc1ccc(Cn2c(=O)c(-c3coc(C)n3)c(OS(=O)(=O)c3ccccc3)c3cc(Cl)ccc32)cc1 [Compound 84] | 6.43 | 98% | –
COc1ccc(Cn2c(=O)c(-c3coc(C)n3)c(OS(=O)(=O)c3ccc(F)cc3)c3cc(Cl)ccc32)cc1 [Compound 85] | 6.06 | 99% | –
COc1ccc(Cn2c(=O)c(-c3coc(C)n3)c(OS(=O)(=O)c3ccc(Cl)cc3)c3cc(Cl)ccc32)cc1 [Compound 86] | 6.17 | 99% | –

SMILES | pIC50 [3] | BRD4-BD1-BD2 % Inhibition [3] | also measured
COc1ccc(Cn2c(=O)c(-c3coc(C)n3)c(OS(=O)(=O)c3ccc4ccccc4c3)c3cc(Cl)ccc32)cc1 [Compound 87] | 6.86 | 99% | –
COc1ccc(Cn2c(=O)c(-c3coc(C)n3)c(OS(=O)(=O)c3cccc4cccnc34)c3cc(Cl)ccc32)cc1 [Compound 88] | 6.06 | 98% | –
COc1ccc(Cn2c(=O)c(-c3coc(C)n3)c(OS(=O)(=O)c3ccc(-c4ccccc4)cc3)c3cc(Cl)ccc32)cc1 [Compound 89] | 6.23 | 99% | –
Cc1noc(C)c1-c1ccc2[nH]c(=O)c(C(=O)/C=C/c3ccccc3)c(-c3cccnc3)c2c1 [Compound 90] | 4.95 | 62% | –
C=CCn1c(Sc2c(-c3ccccc3)c3cc(Cl)ccc3[nH]c2=O)nnc1-c1cccs1 [Compound 97] | 5.24 | 59% | –
COc1ccc(-c2cc(=O)[nH]c(Sc3c(-c4ccccc4)c4cc(Cl)ccc4[nH]c3=O)n2)cc1 [Compound 98] | 5.17 | 64% | –
O=c1[nH]c2ccc(Cl)cc2c(-c2ccccc2)c1SC(=S)N1CCOCC1 [Compound 121] | 5.14 | 68% | –
CCN(CC)C(=S)Sc1c(-c2ccccc2)c2cc(Cl)ccc2[nH]c1=O [Compound 122] | 4.57 | 65% | –
O=c1[nH]c2cc(Cl)ccc2c(-c2ccccc2)c1Sc1nc2ccccc2s1 [Compound 124] | 4.76 | 50% | –
CSc1nsc(Sc2c(-c3ccccc3)c3ccc(Cl)cc3[nH]c2=O)n1 [Compound 126] | 4.63 | 50% | –
CCN(CC)CCCNC(=O)C1CCCN(c2c(-c3ccccc3)c3cc(Cl)ccc3[nH]c2=O)C1 (centres unmarked) [Compound 127] | – | – | pIC50 [2]: 5.26
CNC(=S)N1N=C(c2c(-c3ccccc3)c3cc(Cl)ccc3[nH]c2=O)CC1c1ccccc1 (centres unmarked) [Compound 128] | 4.79 | 64% | –
Cc1ccc(-c2nnc(Sc3c(-c4ccccc4)c4cc(Cl)ccc4[nH]c3=O)n2N)cc1 [Compound 132] | 5.43 | 92% | –
COc1ccc(OC)c(NCc2c(OC)ccc3ccccc23)c1 [Compound 143] | – | 99% | –
O=c1[nH]c2ccc(Br)cc2c(-c2ccccc2)c1-c1cc(-c2ccccc2)[nH]c(=S)n1 [Compound 144] | 7.31 | >90% | –
O=c1[nH]c2ccc(Cl)cc2c(-c2ccccc2)c1-c1cc(-c2ccccc2)[nH]c(=S)n1 [Compound 145] | 5.84 | 72% | –
Cc1noc(C)c1-c1ccc2[nH]c(=O)c(C(=O)/C=C/c3ccccc3)c(-c3cccnc3)c2c1 [drawing 644] | – | – | inhibition at 10 µM [1]: 62%
Cc1ccc(-c2nnc(Sc3c(-c4ccccc4)c4cc(Cl)ccc4[nH]c3=O)n2/N=C/c2ccccc2)cc1 [drawing 646] | – | – | inhibition at 10 µM [1]: 70%
Cc1ccc(-c2nnc(Sc3c(-c4ccccc4)c4cc(Cl)ccc4[nH]c3=O)n2/N=C/c2ccccc2)cc1 [drawing 647] | – | – | % inhibition at 10 μM [1]: 71%
